“And” between values parts separate entries of the source, which are not always exact repeats. Identical values can stand only once. Like-named read-outs stand apart in the source and are kept apart here.
Legend:
IL-1β [1] = biological target: T1, IL-1β (Homo sapiens, UniProt P01584); experiment: SPR binding of compounds to immobilized hIL-1β; set-up: Mature hIL-1β was expressed in Escherichia coli; made in house; host or cells: Escherichia coli BL21 (DE3), pET17b
Protocol: All SPR experiments were performed with an SPR-32 instrument (Bruker Daltonics SPR, Hamburg, Germany). SPR chips were from XanTec bioanalytics GmbH (Düsseldorf, Germany).
C-terminally avi-tagged hIL-1β protein was immobilized onto a SAHC200M chip with a neutravidin-coated surface. Immobilization was performed with a protein injection of 0.02 mg/ml IL-1β diluted in PBS pH 7.5 (Gibco 70011-036, 10×), 0.05% Tween-20 for 5 min at 10 μl/min. The running buffer for binding studies of compounds was PBS pH 7.4, 0.05% Tween-20, and 2% DMSO. For the correction of small DMSO variations between samples, injections of 6 solvent samples ranging from 1% to 3% DMSO were run. Compound measurements were performed in MICK mode (multiple injection cycles kinetic) with a dose–response of 10 concentrations. Dissociation constants for compounds (KD) were obtained by determining steady-state fit that followed the 1:1 Langmuir model.
Data analysis was performed with the Sierra Analyzer 3.4.0 software from Bruker. Signal intensities were corrected for nonspecific binding to the surface by subtracting intensities from the reference surface from those of the hIL-1β surfaces (first reference subtraction) and by subtracting the buffer injection (second reference subtraction). KD values were carried out by determining a reporting point close to the end of the injection, used for steady-state fit, in addition to a kinetic fit delivering kon- and koff-values; both fitting models followed the 1:1 Langmuir equation.
Supplementary Figure 3. De termination of binding af fi nit ie s for se l ec ted ana l ogues of 1 by SPR. a - d Gr ap hs of exemplary experimen ts are given , where the sat urat ion of hI L-1b immobil ized on a chip was monitored at various concentrations of compound 3, 12, 10, and 11, respectively. Th e saturati on reached at equ ilibri um (insert) was plo tt ed versus the admini stered concentration and the equ ilibri um bin ding constant was derived from a non-li near lea st square fitting routine. e equ ilibri um and f kinetic bin ding of (S)-2 to IL-1b (kon = 1. 15 x 105 M-1 s-1 and koff = 0. 12 s-1).

IL-1β [2] = biological target: T1, IL-1β; experiment: TR-FRET IL-1β/hIL-1R1 receptor displacement assay; assay type: biochemical
Protocol: After 1 h incubation at room temperature, hIL-1R1 (1–332; Alexa 647 labeled; 50 nM final concentration) and anti-His-Europium W1024 (Perkin Elmer; Cat.No. AD0401, 1 nM final concentration) were added to a final volume of 10 μl per well. […] All experiments were run in triplicates.

[3] = system: normal human dermal fibroblasts stimulated with hIL-1β; experiment: Human fibroblast IL-6 release assay, hIL-1β stimulated; assay type: cell-based; set-up: IL-6, average / inhibition, replicates of EXP1, EXP2, EXP3 / inhibition, Mean / IL-1beta (mean, SD): mean readout (IL-6 release): unit not given here; conditions: for IL-6, average / IL-6, curve fit: per experiment; for IC50: Homo sapiens, Fibroblast
Protocol: We used HEK-Blue™ IL-1β cells that respond specifically to IL-1 (# hkb-il1b, InvivoGen). These cells can detect IL-1α and IL-1β, as these cytokines bind to the same receptor, IL-1R1. They express a Seap reporter gene under the control of the IFN-β minimal promoter fused to five NF-kappaB and five AP-1 binding sites. Thirty microliters (300,000 cells/ml) per well of a 384-well plate were plated overnight. Cells were then stimulated with graded concentrations of cytokines (hIL-1α or hIL-1β) in the absence or presence of canakinumab (Ilaris®, ILARI LYVI 150MG 22GLW.012, batch U003 0409)[22], anakinra (Kineret®, 100 mg/0.67 ml injectable solution, Sobi)[23], or compound (S)-2 (compounds were pre-mixed for 1 h with the cytokine prior to addition to cells) and further incubated overnight before assessment of Seap activity.
Normal human dermal fibroblasts (NHDF) from Clonetics^TM (LONZA, Cat # CC-2509 (NHDF-Neo), Lot # 0000234242, used at passage ≤14) were seeded at a density of 5000 cells/well in 100 μL of culture medium using 96-well plates (flat bottom, TCT). Treatment with cytokines/compounds was performed as described above. Cells were incubated for another 6 h and were subsequently spun down (320g/3 min). IL-6 was measured in the supernatant by ELISA (BioLegend, # 430503) or HTRF (Cisbio, #62HIL06PEH).

T1 sequence (P01584 117-269): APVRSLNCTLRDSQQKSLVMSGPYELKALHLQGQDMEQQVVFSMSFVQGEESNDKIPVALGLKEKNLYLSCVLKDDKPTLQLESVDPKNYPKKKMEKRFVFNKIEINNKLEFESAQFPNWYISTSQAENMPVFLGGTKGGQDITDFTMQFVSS

Compound: Cc1ccc2c(c1)NC(=O)C2(O)c1cc(-c2ccc(C(=O)O)cc2)ccc1O (stereo not drawn) [Compound 10]
- Kd (IL-1β [1]; source data, read-out: SPR Kd, Mean): 43.6 µM
- Kd (IL-1β [1]; source data, read-out: SPR Kd, individual experiments (Exp1-5)): 58 µM and 63 µM and 27 µM and 26 µM
- Kd (IL-1β [1]; steady-state fit, 1:1 Langmuir, read-out: SPR KD): 44 ± 17 µM
- IC50 (IL-1β [2]; Il1b wt, read-out: TR-FRET IC50, individual experiments): 200 µM and 134 µM
- IC50 (IL-1β [2]; read-out: TR-FRET IL-1β IC50): 178 ± 38 µM
- IL-6, average ([3]; 0.3 uM): 4.183
- IL-6, curve fit ([3]; 0.3 uM): 2.28E-12
- IL-6, average ([3]; 1.2 uM): 7.793
- IL-6, curve fit ([3]; 1.2 uM): 3.34E-09
- IL-6, average ([3]; 3 uM): 7.203
- IL-6, curve fit ([3]; 3 uM): 4.25E-07
- IL-6, average ([3]; 12 uM): 4.254
- IL-6, curve fit ([3]; 12 uM): 0.0006137
- IL-6, average ([3]; 33 uM (Cpd 10/11 series)): 6.569
- IL-6, curve fit ([3]; 33 uM (Cpd 10/11 series)): 0.1292
- IL-6, average ([3]; 99 uM): 29.3257
- IL-6, curve fit ([3]; 99 uM): 29.6479
- IL-6, average ([3]; 300 uM): 100.311
- IL-6, curve fit ([3]; 300 uM): 99.3118
- IC50 ([3]; 6 h, human dermal fibroblasts, hIL-1β, 6 h, read-out: IL-6 release IC50): 117 µM
- IC50 ([3]; source data, read-out: IL-6 IC50, individual experiments): 117 µM
